Measurements as given in article PMC7724566, “Prospects for Clinical Development of Stat5 Inhibitor IST5-002: High Transcriptomic Specificity in Prostate Cancer and Low Toxicity In Vivo” (Cancers, 2020).

Experiments:
Stat5 [1] = target: T1, Stat5 (Homo sapiens, UniProt P42229); assay: Native-gel-based Stat5 dimerization assay, CWR22Rv1 cells; type: cell-based; conditions: 1 µM, 6 h, Prl (10 nM) stimulated CWR22Rv1 cells, STAT5A-eYFP
T1 construct: expressed in transfected cells; host or cells: CWR22Rv1
Source text: Having established that IST5 and IST5-M both interrupt phosphorylation of Stat5, we next investigated the potency of IST5-M vs. IST5 in suppressing dimerization of Stat5 in PC cells. First, we performed a native Polyacrylamide Gel Electrophoresis (PAGE) based Stat5 dimerization assay established originally by Fahrenkamp et al., where CWR22Rv1 cells were transfected with STAT5A-eYFP (Stat5 wild type), STAT5A-N642H-eYFP (constitutive activated Stat5 by N642H mutation, as a positive control) or STAT3-eYFP (Stat3 wild type, as a negative control) constructs for 3 days (Figure 5A). CWR22Rv1 cells were starved for 16 h, pretreated with vanadate (1 mM) for 2 h, followed by treatment with vehicle, IST5 or IST5-M (1 µM) for 6 h and stimulation with Prl (10 nM) for 1 h.
Figure 5 Both IST5 and IST5-M suppress dimerization of Stat5 with similar efficacies in prostate cancer cells. (A), IST5 and IST5-M inhibit equally potently dimerization of Stat5 in native-gel-based Stat5 dimerization assay. […] Dimerization of Stat5 was analyzed by detection of the eYFP fluorescence of the native Coomassie gel. […] (E), differences in posttranslational modifications were detected between native and recombinant STAT5a using mass spectrometry. Native STAT5a from CWR22Rv1 cells and recombinant STAT5a from E. coli were gel-purified, digested using trypsin, and analyzed by bottom-up mass spectrometry. […]

Stat5 [2] = assay: Stat5 phosphorylation in CWR22Rv1 cells (IP/immunoblot); type: cell-based, human; conditions: 4 days
Description: (§1) In order to evaluate whether the phosphate group of IST5 is critical for IST5 activity in cell-based assays, we compared the potency of IST5 (Figure 4A) to that of IST5-M (IST5 without the phosphate group) (Figure 4B) in inhibiting phosphorylation of Stat5 in PC and CML cells. CML (K562) cells and PC (CWR22Rv1) cells were cultured for 4 days with increasing concentrations of IST5 and IST5-M (Figure 4C,D). […] Collectively, these finding indicate that IST5 and IST5-M have similar efficacies in inhibiting phosphorylation of Stat5 in both CML and PC cells.
(§2) Figure 4 IST5 and the IST5-derivative lacking the phosphate group (IST5-M), both, inhibit Stat5 phosphorylation in CML and prostate cancer cell line with high efficacy. (A), chemical structure of IST5-002 (IST5). (B), chemical structure of IST5-M (IST5 without the phosphate group. (C), IST5 and IST5-M both inhibit Stat5 phosphorylation in CML cells (K562) with high efficacy. K562 cells were treated with IST5 and IST5-M for 4 days at the concentrations indicated. Whole cell lysates (WCL) were immunoblotted with anti-pYStat5 mAb, anti-Stat5 mAb and anti-actin mAb as loading control. (D), IST5 and IST5-M, both, decrease Stat5 phosphorylation in PC cells (CWR22Rv1). CWR22Rv1 cells were treated with increasing concentrations of IST5 and IST5-M for 4 days. Stat5 was immunoprecipitated (IP) followed by immunoblotting (WB) with anti-pYStat5 mAb and anti-Stat5 mAb. Whole cell lysates (WCL) were immunoblotted with anti-actin mAb as loading control.
(§3) Cell pellets were solubilized in the lysis buffer (10 mM Tris-HCl (pH 7.6), 5 mM EDTA, 50 mM sodium chloride, 30 mM sodium pyrophosphate, 50 mM sodium fluoride, 1 mM sodium orthovanadate, 1% Triton X-100, 1 mM phenylmethylsulfonyl fluoride, 5 µg/mL aprotinin, 1 µg/mL pepstatin A and 2 µg/mL leupeptin), and protein concentrations of clarified cell lysates were determined by a simplified Bradford method (Bio-Rad, Hercules, CA, USA). The whole cell lysates were immunoprecipitated with polyclonal antibodies (Table S1) followed by incubation with protein A-Sepharose beads (GE Healthcare, Chicago, IL, USA). The cell lysates and immunoprecipitated proteins were separated on 4–12% SDS-PAGE (Life Technologies, Brown Deer, WI, USA) and transferred electrophoretically to polyvinylidene fluoride membrane (Millipore). For immunoblotting, blocking buffer was tris-buffered saline and tween 20 (TBST, 0.15 M NaCl; 0.1% Tween 20; 50 mM Tris, pH 8.0) with 3% bovine serum albumin (BSA). The immunoreaction with the specific antibodies (Table S1) was detected by horseradish peroxidase-conjugated secondary antibodies followed by enhanced chemiluminescence (GE Healthcare).

Stat5 [3] = assay: Stat5 phosphorylation in K562 cells (immunoblot); type: cell-based, human; conditions: 4 days
Description: as §1, §2, §3

Stat5 [4] = tested on: Stat5; design: method as in PMID 31548294; conditions: patients treated with enzalutamide (median 6 months); cited from earlier work

T1 sequence (P42229 whole entry, species assumed): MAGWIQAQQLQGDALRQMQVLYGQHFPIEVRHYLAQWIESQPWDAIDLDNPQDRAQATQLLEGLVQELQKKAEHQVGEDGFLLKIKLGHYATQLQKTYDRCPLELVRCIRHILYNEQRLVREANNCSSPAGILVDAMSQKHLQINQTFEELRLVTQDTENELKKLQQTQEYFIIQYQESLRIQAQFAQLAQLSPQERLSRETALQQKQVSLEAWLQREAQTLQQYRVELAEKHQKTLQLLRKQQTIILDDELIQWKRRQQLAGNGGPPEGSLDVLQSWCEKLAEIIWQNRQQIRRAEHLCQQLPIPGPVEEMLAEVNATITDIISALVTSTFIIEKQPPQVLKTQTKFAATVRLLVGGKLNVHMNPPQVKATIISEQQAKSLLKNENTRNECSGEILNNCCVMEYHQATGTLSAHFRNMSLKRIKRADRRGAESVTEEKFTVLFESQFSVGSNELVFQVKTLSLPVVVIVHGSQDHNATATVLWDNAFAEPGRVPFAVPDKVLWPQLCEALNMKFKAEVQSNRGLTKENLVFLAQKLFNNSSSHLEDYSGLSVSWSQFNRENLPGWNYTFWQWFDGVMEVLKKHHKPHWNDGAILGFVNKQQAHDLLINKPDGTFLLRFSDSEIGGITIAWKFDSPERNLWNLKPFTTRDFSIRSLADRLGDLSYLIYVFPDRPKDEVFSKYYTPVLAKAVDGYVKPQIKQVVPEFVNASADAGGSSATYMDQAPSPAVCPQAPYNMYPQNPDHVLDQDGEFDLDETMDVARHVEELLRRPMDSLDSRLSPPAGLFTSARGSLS

## OCC1OC(n2cnc3c(NCc4ccccc4)ncnc32)C(O)C1O (stereo not drawn) [IST5-M]
Stat5 [1]
  inhibition of Stat5 dimerization: inhibited robustly
Stat5 [2]; 2 µM, CWR22Rv1 cells
  inhibition of Stat5 phosphorylation: 60–75%
Stat5 [2]; read-out: IC50, inhibition of Stat5 phosphorylation, CWR22Rv1 PC cells
  IC50: ~1300 nM
Stat5 [3]; 2 µM, K562 cells
  inhibition of Stat5 phosphorylation: 75–90%
Stat5 [3]; read-out: IC50, inhibition of Stat5 phosphorylation, K562 CML cells
  IC50: ~1100 nM

## CNC(=O)c1ccc(N2C(=S)N(c3ccc(C#N)c(C(F)(F)F)c3)C(=O)C2(C)C)cc1F [enzalutamide]
Stat5 [4]
  PC biopsies with significantly elevated levels of Stat5 activation: 10/10
